Molecular target: T1, Sentrin-specific protease 1 (Homo sapiens, UniProt Q9P0U3)
T1 sequence (Q9P0U3 whole entry): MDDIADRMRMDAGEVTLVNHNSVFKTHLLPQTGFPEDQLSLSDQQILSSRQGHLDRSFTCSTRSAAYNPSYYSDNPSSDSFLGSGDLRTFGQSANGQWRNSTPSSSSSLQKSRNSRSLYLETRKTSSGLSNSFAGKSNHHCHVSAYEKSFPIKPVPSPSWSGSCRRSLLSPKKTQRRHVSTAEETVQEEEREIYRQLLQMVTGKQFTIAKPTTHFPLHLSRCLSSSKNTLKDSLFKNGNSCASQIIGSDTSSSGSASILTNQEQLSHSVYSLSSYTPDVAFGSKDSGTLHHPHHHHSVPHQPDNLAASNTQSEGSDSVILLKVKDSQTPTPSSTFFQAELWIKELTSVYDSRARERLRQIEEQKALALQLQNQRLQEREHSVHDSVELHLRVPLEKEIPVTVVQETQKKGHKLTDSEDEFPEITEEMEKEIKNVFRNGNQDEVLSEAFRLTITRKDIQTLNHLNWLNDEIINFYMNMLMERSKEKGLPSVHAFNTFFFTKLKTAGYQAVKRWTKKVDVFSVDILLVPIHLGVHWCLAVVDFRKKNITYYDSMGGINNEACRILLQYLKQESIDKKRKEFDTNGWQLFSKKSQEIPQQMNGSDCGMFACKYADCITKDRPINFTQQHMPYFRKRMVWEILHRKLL

## COc1ccc(C=Nn2c(O)csc2=S)cc1Br [3-[(E)-(3-bromo-4-methoxyphenyl)methylideneamino]-2-sulfanylidene-4-thiazolidinone]
  IC50: 9.69 µM

## O=C(Cc1cccc2ccccc12)NC(NC(=S)Nc1ccccc1Cl)C(Cl)(Cl)Cl (stereo not drawn) [2-(1-naphthyl)-N-[2,2,2-trichloro-1-({[(2-chlorophenyl)amino]carbonothioyl}amino)ethyl]acetamide]
  IC50: 8.71 µM

## N#CC1C(=N)Oc2cc(Nc3ccccc3)ccc2C1c1ccncc1 (stereo not drawn) [2-amino-7-anilino-4-pyridin-4-yl-4H-1-benzopyran-3-carbonitrile]
  IC50: 30.5 µM

## O=C1CCCC2=Nc3cc(Cl)ccc3SC12 (stereo not drawn) [MLS000333002]
  IC50: 17.1 µM

## CN(C)c1ccc(C=NNC(=O)C(=O)CC2=NC3(CCCC3)Cc3ccccc32)cc1 [MLS000589038]
  IC50: 13.2 µM

## COc1ccc(-n2c(O)c3c(c2O)C(C(=O)c2ccccc2)N2CCCC32)cc1 (stereo not drawn) [MLS000762485]
  IC50: 11 µM

## COc1ccc(P2(=O)Nc3ccccc3N2)cc1 [2-(4-methoxyphenyl)-1,3-dihydro-1,3,2-benzodiazaphosphole 2-oxide]
  IC50: > 80 µM

## COc1ccc(-n2c(O)c3c(c2O)C(C(=O)c2ccc(Cl)cc2)N2CCCC32)cc1 (stereo not drawn)
  IC50: 4.36 µM

## Nc1ccc2c(c1)C(N=O)c1cc([N+](=O)[O-])ccc1-2 (stereo not drawn) [N-(2-azanyl-7-nitro-fluoren-9-ylidene)hydroxylamine]
  IC50: 3.12 µM

## CC1=C(C#N)C(=O)NC(=O)C1=NNc1ccc(Br)cc1C(=O)O [MLS001213177]
  IC50: 10.6 µM

## CCOc1cc(C=c2[nH]c3n(c2=O)CCCCC=3)ccc1O [MLS000774439]
  IC50: 7.67 µM

## COc1nccnc1NS(=O)(=O)c1ccc(NC(=S)NC(=O)c2ccc(F)cc2)cc1 [4-[3-(4-Fluoro-benzoyl)-thioureido]-N-(3-methoxy-pyrazin-2-yl)-benzenesulfonamide]
  IC50: 15.4 µM

## O=C(O)c1ccc(N=NCc2cccc3nccnc23)cc1 [4-[(2E)-2-(5-quinoxalinylmethylidene)hydrazinyl]benzoic acid]
  IC50: 8.97 µM

## O=C1CC(=O)c2cccc3cccc1c23 [3-hydroxy-1H-phenalen-1-one]
  IC50: 8.55 µM

## O=C(c1ccccc1)[C@@H]1c2c(c(O)n(-c3ccc(F)cc3)c2O)C2CCCN21 (stereo partly drawn) [MLS000769629]
  IC50: 7.78 µM

## O=NC1c2cc([N+](=O)[O-])ccc2-c2cc(Cl)c(NC(=O)C(F)(F)F)cc21 (stereo not drawn) [MLS002707326]
  IC50: 2.89 µM

## Oc1c2c(c(O)n1-c1ccccn1)C(c1ccccc1)C=CC2c1ccccc1 (stereo not drawn) [4,7-diphenyl-2-pyridin-2-yl-3a,4,7,7a-tetrahydroisoindole-1,3-dione]
  IC50: 7.9 µM

## O=[N+]([O-])c1ccc(C/N=N/c2ccccc2)cc1
  IC50: 7.2 µM

## CCN1C(=O)c2cccc3c(NC(=O)c4cccc(-n5c(O)ccc5O)c4)ccc1c23 [3-(2,5-dioxopyrrolidin-1-yl)-N-(1-ethyl-2-oxobenzo[cd]indol-6-yl)benzamide]
  IC50: 11.3 µM

## CCOC1=CC(=Cc2sc(=O)[nH]c2N)C=CC1=O
  IC50: 18.2 µM

## O=C1CC(=Nc2ccc(Cl)cc2)C(=O)N1c1ccc(Cl)cc1 [1-(4-chlorophenyl)-3-[(4-chlorophenyl)amino]pyrrole-2,5-dione]
  IC50: 12.5 µM

## CC(=O)Oc1ccc(-n2c(O)c3c(c2O)C(C(=O)c2ccc(Cl)cc2)N2CCCC32)cc1 (stereo not drawn) [Acetic acid 4-[4-(4-chloro-benzoyl)-1,3-dioxo-octahydro-pyrrolo[3,4-a]pyrrolizin-2-yl]-phenyl ester]
  IC50: 4.65 µM

## CC1(C)CC(=O)C2Sc3ccccc3N=C2C1 (stereo not drawn) [2,2-Dimethyl-2,3-dihydro-1H,10H-phenothiazin-4-one]
  IC50: 42.4 µM

From BindingDB's records for doi:10.7270/Q2R49PCF (Burnham Center For Chemical Genomics, 2012)
